Values after ≈ are worked out from the molar mass of the structure shown. Like-named read-outs stand apart in the source and are kept apart here.
Columns and labels:
[1] = target: T1, human leukotriene B4 receptor (LTB4R) (Homo sapiens, UniProt Q15722); assay: Human LTB4 receptor cell-based assay (CHO mito-i-Photina, flash luminescence); details: antagonist mode
T1 construct: host or cells: CHO mito-i-Photina cells
Excerpt: 3. Human LTB4 Receptor Cell-Based Assay
CHO mito-i-Photina® cells (Axxam SpA) stably expressing the human leukotriene B4 receptor (LTB4R) were used for monitoring activation of the target LTB4R, a GPCR (Gαq), by measuring the flash luminescence of Ca^2+ sensitive photoprotein as reporter system with FLIPR^TETRA screening instrumentation (Molecular Devices) upgraded with an ICCD Camera (MDC). For data quality check and data analysis a Genedata Screener 10.0.3 was used, and for curve fitting of reference agonist and antagonist GraphPad Prism Software.
The reference agonist LTB4 and antagonist U-75302 were purchased from reputable commercial vendors and prepared according to each ligand's specifications. All handling of ligands were done to ensure proper control throughout the experiments.
The steps of the implemented workflow and data analysis are mainly as follows:
mito-1-Photina cells are seeded (10000 c/w in 384 MTP; in complete medium 25 μL/well) for 24 hours, removed from the incubator, equilibrated at room temperature for 1 h, freed from the growth medium, loaded with 30 μL/well of Tyrode's buffer containing 10 μM coelenterazine, and incubated for 3 hours at rt.
All compounds were tested at 10 μM with triplicate data points.
After incubation, the volume in all the wells is flattened to 20 μL by aspiration with CyBi®-Vario pipettor. The First Injection (10 μL of test compounds or reference antagonist U-75302 in Tyrode's buffer+DMSO 0.5%) is performed by the FLIPR^TETRA and the kinetic response is monitored over a period of 120 seconds. Incubation at rt for 10 min. is followed by the Second Injection (15 μL of LTB4 at EC80 in Tyrode's buffer) and monitoring of the kinetic response over a period of 120 seconds.
The possible kinetic response is divided into two distinct phases: Monitoring the kinetic response after the First Injection is indicated as Compound Addition (CA) and measures the agonistic activity of compounds; monitoring the kinetic response after the Second Injection is indicated as Target Activation (TA) and measures the antagonistic activity of a compound.
The activity determination (IC50 determination) experiment is performed using LTB4 as agonist (100 nM corresponding to EC80). Selected compound are tested in 8 doses intraplate dose response with quadruplicate data points.

[2] = tested on: S. aureus ATCC 29213, ATCC 25923, DSM 11729, DSM 46320, S. aureus 39; assay: Antimicrobial assay, broth microdilution MIC, S. aureus strains; format: cell-based; details: Staphylococcus aureus
Method: (§1) The antimicrobial activities of the compounds were determined in 96-well plates (Greiner, polystyrene) by the standard NCCLS broth microdilution method (National Committee for Clinical Laboratory Standards 1993. Methods for dilution antimicrobial susceptibility tests for bacteria that grow aerobically, 3rd ed. Approved standard M7-A6. National Committee for Clinical laboratory standards, Wayne, Pa.) with slight modifications. Inocula of the microorganisms were diluted into Mueller-Hinton II (MH, cation adjusted) broth+0.002% P-80 and compared with a 0.5 McFarland standard to give appr. 10^6 colony forming units (CFU)/mL. Aliquots (50 μl) of inoculate were added to 50 μl of MH broth+0.002% P-80 containing the compounds in serial two-fold dilutions. The following microorganisms were used to determine antibiotic selectivity of the compounds: S. pneumoniae DSM 20566 11A11, 3313A6, 704CG4B21, 82BERG72; S. aureus ATCC 29213, ATCC 25923, DSM 11729, DSM 46320, S. aureus 39. Antimicrobial activities of the compounds were expressed as the minimal inhibitory concentration (MIC) in μg/mL at which no visible growth was observed after 18-20 hours of incubation at 36° C.

[3] = target: T2, Oxytocin receptor (OT receptor) (Homo sapiens, UniProt P30559); assay: Ca2+ flux (FLIPR) assay, OT receptor, agonist/antagonist mode; format: cell-based; details: antagonist mode
T2 construct: expressed in transfected cells; host or cells: Ca2+ optimized hematopoietic cell lines (rat)
T2 sequence (P30559 1-389): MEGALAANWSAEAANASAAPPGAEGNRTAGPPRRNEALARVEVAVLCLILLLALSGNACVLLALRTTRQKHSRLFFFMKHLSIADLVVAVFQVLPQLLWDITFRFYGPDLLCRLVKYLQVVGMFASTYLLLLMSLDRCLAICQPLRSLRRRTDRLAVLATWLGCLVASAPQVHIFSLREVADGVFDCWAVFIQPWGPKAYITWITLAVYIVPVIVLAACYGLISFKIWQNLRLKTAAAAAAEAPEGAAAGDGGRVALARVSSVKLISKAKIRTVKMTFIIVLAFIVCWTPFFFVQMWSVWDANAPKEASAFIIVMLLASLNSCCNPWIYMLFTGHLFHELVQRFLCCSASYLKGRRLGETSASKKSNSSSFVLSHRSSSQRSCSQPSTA
Method: Biological and Pharmacological Methods 1. Ca^2+ Flux Assays for the GPCRs Oxytocin Receptor (OT Receptor), Thyrotropin-Releasing Hormone Receptor (TRH Receptor) and Bombesin Receptor Subtype 3 (BB3 Receptor)
Assays were performed on a FLIPR^TETRA fluorometric imaging plate reader (Molecular Devices) with ScreenWorks Version 2 (Molecular Devices) as device operating and data analysis software.
Dose dependent agonist and antagonist activities were determined. Percentage activation and percentage inhibition values were determined.
Percentage activation was determined upon initial addition of the sample compounds followed by 10 minutes' incubation at 25° C. Following compound incubation, reference agonists were added at EC80 to determine percentage inhibition.
Reference agonists were purchased from reputable commercial vendors and prepared according to each ligand's specifications. All handling of ligands were done to ensure proper control throughout the experiments.
Example compounds were weighed on a Microbalance (Mettler MX5) and dissolved in 100% DMSO to a final concentration of 2.5 mM and subsequently diluted into the assay buffer.
The assay buffer was a supplemented HBSS (Hank's Balanced Salt Solution). HBSS was supplemented with 20 mM HEPES (4-(2-hydroxyethyl)-piperazin-1-ethansulfonic acid) and 2.5 mM Probenecid (Sigma P8761).
GPCR assays were performed using Ca^2+ optimized hematopoietic cell lines (rat) with cultures never exceeding 90% confluency. Cells were harvested and seeded (from cultures at less than 90% confluency) at 50000 cells/well for a 96-well plate (12500 cells/well for 384). After seeding, the assay plates were incubated for 45 minutes at room temperature. After room temperature incubation, the assay plates were incubated at 37° C. 5% CO2 for 24 hours prior to assaying.
All GPCR assays were performed using Fluo-8 Ca^2+ dye.
Ca^2+ dye was prepared at 1× dye concentration in GPCR assay buffer. After 24 hours of incubation, cells were washed with GPCR assay buffer, and then Ca^2+-dye (100 μL/well) was added.
The plates were incubated for 90 minutes at 30° C. 5% CO2 prior to FLIPR assay.
Compound plates were prepared to add 50 μL/well during the agonist assay mode. During the FLIPR assay, 50 μL/well from the compound plate was diluted 3-fold into the existing 100 μL/well from the dye loading step. Therefore all compounds were prepared as 3× the final concentration desired in the assay.
After completion of the first single addition assay run, assay plate was removed from the FLIPR Tetra and placed at 25° C. for 7 minutes before antagonist assay.
Using the EC80 values determined during the agonist assay, all pre-incubated sample compound and reference antagonist (if applicable) wells were stimulated at the EC80 of the reference agonist. As reference ligands for these assays their obvious natural ligands oxytocin (OT), thyrotropin-releasing hormone (TRH) and bombesin (6-14) [BN(6-14)] were used.
After the addition of the reference agonist fluorescence was monitored for 180 sec using FLIPR Tetra.
From the FLIPR data, with negative control correction enabled, the maximum statistic for each well was exported and percentage activation relative to Emax control was calculated.

[4] = tested on: S. pneumoniae DSM 20566 11A11, 3313A6, 704CG4B21, 82BERG72; assay: Antimicrobial assay, broth microdilution MIC, S. pneumoniae strains; format: cell-based; details: Streptococcus pneumoniae, DSM20566; strain DSM 20566 (Table 32.7); read-out: MIC S. pneumoniae DSM 20566
Method: as §1

T1 sequence (Q15722 whole entry): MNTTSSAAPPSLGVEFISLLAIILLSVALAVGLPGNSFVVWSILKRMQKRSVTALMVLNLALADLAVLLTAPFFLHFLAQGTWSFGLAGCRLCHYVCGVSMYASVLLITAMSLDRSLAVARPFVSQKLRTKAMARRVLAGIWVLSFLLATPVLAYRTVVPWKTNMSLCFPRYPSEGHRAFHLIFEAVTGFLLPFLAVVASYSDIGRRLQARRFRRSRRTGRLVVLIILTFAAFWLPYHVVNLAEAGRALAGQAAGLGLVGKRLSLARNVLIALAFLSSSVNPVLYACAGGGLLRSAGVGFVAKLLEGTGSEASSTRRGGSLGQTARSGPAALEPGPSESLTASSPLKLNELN

| SMILES | IC50 [1] | inhibition at 10 µM [1] | IC50 [3] | inhibition at 10 µM ([3]; 10 μM) | further results |
| --- | --- | --- | --- | --- | --- |
| O=C(N[C@@H]1CCNC(=O)c2ccccc2-c2cccc(c2)OC[C@@H]2C[C@H](NC(=O)Oc3ccccc3)CN2C1=O)OCc1ccccc1 [Ex. 14] | 39.4 µM | 46% | – | – | – |
| CN1CCNC(=O)c2cncc(c2)-c2cccc(c2)OC[C@@H]2C[C@@H](NC(=O)OC(C)(C)C)CN2C(=O)C1 [Ex. 94, tert-butyl N-[(9S,11R)-16-methyl-14,20-dioxo-7-oxa-13,16,19,23-tetraazatetracyclo[19.3.1.1^2,6.0^9,13]hexacosa-1(25),2(26),3,5,21,23-hexaen-11-yl]carbamate] | – | – | 3 µM | 58% | MIC ([2]; strain ATCC 25923, read-out: MIC S. aureus ATCC 25923): 8 µg/mL (≈ 15.7 µM); MIC ([2]; strain ATCC 29213, read-out: MIC S. aureus ATCC 29213): 4 µg/mL (≈ 7.85 µM); MIC ([2]; strain DSM 11729, read-out: MIC S. aureus DSM 11729): 4 µg/mL (≈ 7.85 µM); MIC ([2]; strain DSM 46320, read-out: MIC S. aureus DSM 46320): 8 µg/mL (≈ 15.7 µM); MIC ([2]; strain S. aureus 39, read-out: MIC S. aureus 39): 8 µg/mL (≈ 15.7 µM); MIC [4]: > 16 µg/mL |
| CN1CCNC(=O)c2cncc(c2)-c2cccc(c2)OC[C@@H]2C[C@@H](NC(=O)Cc3ccc4ccccc4c3)CN2C(=O)C1 [Ex. 96, N-[(9S,11R)-16-methyl-14,20-dioxo-7-oxa-13,16,19,23-tetraazatetracyclo[19.3.1.1^2,6.0^9,13]hexacosa-1(25),2(26),3,5,21,23-hexaen-11-yl]-2-(2-naphthyl) acetamide] | – | – | 1.2 µM | 60% | – |
| CN1CCNC(=O)c2cncc(c2)-c2cccc(c2)OC[C@@H]2C[C@@H](NS(=O)(=O)c3ccccc3)CN2C(=O)C1 [Ex. 103, N-[(9S,11R)-16-methyl-14,20-dioxo-7-oxa-13,16,19,23-tetraazatetracyclo[19.3.1.1^2,6.0^9,13]hexacosa-1(25),2(26),3,5,21,23-hexaen-11-yl]benzenesulfonamide] | – | – | 6.9 µM | 77% | – |
| C[C@@H]1COc2cccc(c2)-c2ccccc2SCCCC[C@H](N)C(=O)N1 [Ex. 116, (13S,16R)-13-amino-16-methyl-18-oxa-8-thia-15-azatricyclo[17.3.1.0^2,7]tricosa-1(23),2,4,6,19,21-hexaen-14-one] | 15.4 µM | 49% | – | – | – |
| C[C@@H]1COc2cccc(c2)-c2ccccc2SCCCC[C@H](NC(=O)CN2CCCC2)C(=O)N1 [Ex. 119, N-[(13S,16R)-16-methyl-14-oxo-18-oxa-8-thia-15-azatricyclo[17.3.1.0^2,7]tricosa-1(23),2,4,6,19,21-hexaen-13-yl]-2-(1-pyrrolidinyl)acetamide] | 14.2 µM | 47% | – | – | – |

Further lines, with some results ahead:

| IC50 [1] | inhibition at 10 µM [1] | IC50 [3] | inhibition at 10 µM ([3]; 10 μM) | SMILES | further results |
| --- | --- | --- | --- | --- | --- |
| – | – | 4.6 µM | 57% | CC(=O)N[C@@H]1C[C@H]2COc3cccc(c3)-c3cncc(c3)C(=O)NCCN(Cc3cccc(F)c3)CC(=O)N2C1 [Ex. 100, N-[(9S,11R)-16-(3-fluorobenzyl)-14,20-dioxo-7-oxa-13,16,19,23-tetraazatetracyclo[19.3.1.1^2,6.0^9,13]hexacosa-1(25),2(26),3,5,21,23-hexaen-11-yl]acetamide] | – |
| – | – | 2.6 µM | – | CN1CCNC(=O)c2cncc(c2)-c2cccc(c2)OC[C@@H]2C[C@@H](NC(=O)Cc3cccc4ccccc34)CN2C(=O)C1 [Ex. 101, N-[(9S,11R)-16-methyl-14,20-dioxo-7-oxa-13,16,19,23-tetraazatetracyclo[19.3.1.1^2,6.0^9,13]hexacosa-1(25),2(26),3,5,21,23-hexaen-11-yl]-2-(1-naphthyl) acetamide] | Antagonist activity % Inhibition at 10 μM ([3]; 10 μM): 69% |
| 40.9 µM | 41% | – | – | C[C@@H]1COc2ccccc2-c2cncc(c2)SCCCC[C@H](N)C(=O)N1 [Ex. 144, (10R,13S)-13-amino-10-methyl-8-oxa-18-thia-11,21-diazatricyclo[17.3.1.0^2,7]tricosa-1(23),2,4,6,19,21-hexaen-12-one] | – |
